Laboratory results published in US20060189576A1, “Substituted vitamin d analogues and their therapeutic uses” (priority 2003, published 2006).
Read-outs that look alike come from different tables or passages of the source.

Tests used:
HL-60 cells = assay: HL-60 cell differentiation (NBT reduction assay); type: cell-based; details: for IN VITRO STUDIES HL 60: potency to differentiate HL 60 cells, percentage activity vs 1α,25(OH)2D3 (=100%)
Method: To evaluate the effect on cell differentiation HL-60 cells were seeded at 4×10^4 cells/ml in 25 cm^2 Falcon tissue chambers using RPMI 1640 medium supplemented with 20% FCS and gentamycin (50 μg/ml) in a final volume of 5 ml. Cultures were maintained at 37° C. in a humidified atmosphere of 5% CO2 in air. […] After 4 days of culture, the dishes were shaken to lose adherent cells. Cells were washed twice in RPMI, counted and assayed for differentiation markers (NBT reduction assay). Superoxide production was measured as NBT reducing activity as described previously (Ostrem V. K et al. Proc Natl Acad Sci USA 84: 2610-2614, 1987). HL-60 cells at 1×10^6/ml were mixed with an equal volume of freshly prepared solution of phorbol 12-myristate 13-acetate (200 ng/ml) and […] and incubated for 30 min at 37° C. The percentage of cells containing black formazan deposits was determined using a hemacytometer.

MCF-7 cells = assay: MCF-7 cell proliferation ([3H]thymidine incorporation); type: cell-based; details: for IN VITRO STUDIES MCF-7: antiproliferative action, percentage activity vs 1α,25(OH)2D3 (=100%); for Antiproliferative activity on MCF-7 cells: percentage activity (at 50% of the dose response) vs 1α,25(OH)2D3 (=100%); for antiproliferative effect (in words) / antiproliferative activity, times that of 1α,25(OH)2D3: MCF-7 cells
Method: To evaluate the effect of on cell proliferation, malignant MCF-7 cells were cultured in DMEM/nut. mix. […] Cultures were maintained at 37° C. in a humidified atmosphere of 5% CO2 in air. MCF-7 cells were seeded at 5×10^3 cells/well in the above described medium in 96-well microtiter plates in a final volume of 0.2 ml per well. Triplicate cultures were performed. […] Then, 1 μCi [^3H]thymidine was added to each well and cells were harvested after 4 h incubation with a Packard harvester and measured by the Packard Topcount System (Packard, Meriden, USA).

[1] = for Femur calcium: NMRI mice, 7 consecutive days; for IN VIVO STUDIES Osteocalcin serum: mice, daily intraperitoneal injection 7 consecutive days, percentage activity vs 1α,25(OH)2D3 (=100%); for IN VIVO STUDIES Calcium serum / IN VIVO STUDIES Calcium urine / Serum calcium in mice: ip
Method: Eight weeks old, male NMRI mice were obtained from the Proefdierencentrum of Leuven (Belgium) and fed a vitamin D-replete diet (0.2% calcium, 1% phosphate, 2000 U vitamin D/kg; Hope Farms, Woerden, The Netherlands). […] The control group was injected with vehicle (arachis oil). The average weight of each group of 6 mice was determined at the beginning and at the end of the experiment. The following parameters were evaluated: serum calcium, serum osteocalcin, femur calcium and urinary calcium. Serum and urinary calcium were measured by a microcolorimetric assay (Sigma, St. Louis, Mo.). Femurs were removed and femur calcium content was measured in HCl-dissolved bone ash (obtained by heating for 24 h in an oven at 100° C.), using the same technique as for serum and urinary calcium.

hDBP = molecular target: T1, hDBP (Homo sapiens, UniProt P02774); assay: Affinity for human DBP: competition with [3H]1α,25(OH)2D3; type: binding; details: percentage activity (at 50% of the dose response) in comparison with 1α,25(OH)2D3 (=100%)
T1 sequence (P02774 17-474): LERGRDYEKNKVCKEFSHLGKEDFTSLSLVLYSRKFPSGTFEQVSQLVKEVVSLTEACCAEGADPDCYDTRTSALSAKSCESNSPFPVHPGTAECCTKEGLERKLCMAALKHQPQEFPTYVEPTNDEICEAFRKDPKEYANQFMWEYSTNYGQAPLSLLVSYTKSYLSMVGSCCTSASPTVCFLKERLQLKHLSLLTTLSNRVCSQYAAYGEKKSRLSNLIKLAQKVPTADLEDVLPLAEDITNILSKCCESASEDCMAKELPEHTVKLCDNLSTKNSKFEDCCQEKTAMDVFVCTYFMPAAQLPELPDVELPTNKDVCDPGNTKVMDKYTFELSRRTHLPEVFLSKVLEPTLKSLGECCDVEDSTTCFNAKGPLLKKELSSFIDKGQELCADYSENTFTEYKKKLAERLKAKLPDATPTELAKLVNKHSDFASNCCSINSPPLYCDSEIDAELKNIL
Method: Phase separation was then obtained by the addition of 0.5 ml of cold dextran-coated charcoal.

vitamin D receptor = molecular target: T2, vitamin D receptor (Sus scrofa, UniProt A3RGC1); details: percentage activity (at 50% of the dose response) in comparison with 1α,25(OH)2D3 (=100%)
T2 sequence (A3RGC1 1-427): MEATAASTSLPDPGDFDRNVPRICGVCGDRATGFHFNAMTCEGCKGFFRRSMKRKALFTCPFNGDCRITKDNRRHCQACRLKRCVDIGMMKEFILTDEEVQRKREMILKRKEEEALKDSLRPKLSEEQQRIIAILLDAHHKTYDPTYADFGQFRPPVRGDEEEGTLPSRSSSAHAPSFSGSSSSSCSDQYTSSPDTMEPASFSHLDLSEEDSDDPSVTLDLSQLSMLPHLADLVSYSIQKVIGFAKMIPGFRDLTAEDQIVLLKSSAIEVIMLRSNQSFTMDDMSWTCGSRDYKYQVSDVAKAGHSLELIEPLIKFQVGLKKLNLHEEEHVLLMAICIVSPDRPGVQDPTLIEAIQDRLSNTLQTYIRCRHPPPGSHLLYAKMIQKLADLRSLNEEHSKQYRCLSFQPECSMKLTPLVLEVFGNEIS
Method: The incubation was performed at 4° C. for 20 h and phase separation was obtained by addition of dextran-coated charcoal.

SMILES	IN VITRO STUDIES HL 60 (HL-60 cells) [%]	IN VITRO STUDIES MCF-7 (MCF-7 cells) [%]	Antiproliferative activity on MCF-7 cells (MCF-7 cells) [%]	Femur calcium ([1]; 0.1 μg/kg/d intraperitoneally) [mg]	Femur calcium ([1]; 0.2 μg/kg/d intraperitoneally) [mg]	Femur calcium ([1]; 0.4 μg/kg/d intraperitoneally) [mg]	IN VIVO STUDIES Osteocalcin serum [1] [%]	IN VIVO STUDIES Calcium serum ([1]; mouse, in vivo) [%]	IN VIVO STUDIES Calcium urine ([1]; mouse, in vivo) [%]	Serum calcium in mice ([1]; mouse, in vivo) [%]	AFFINITY STUDIES DBP (hDBP) [%]	prodifferentiating effect (in words) (HL-60 cells; HL 60 cells)	times less active than the parent compound to inhibit MCF-7 cell proliferation (MCF-7 cells; parent compound 1α,25(OH)2D3) [times]	AFFINITY STUDIES VDR (vitamin D receptor) [%]	antiproliferative effect (in words) (MCF-7 cells)	further reduction of calcemic activity by the 2β counterpart ([1]; mouse, in vivo) [fold]	prodifferentiating activity, times that of 1α,25(OH)2D3 (HL-60 cells; HL 60 cells) [times]	antiproliferative activity, times that of 1α,25(OH)2D3 (MCF-7 cells) [times]	increase of capacity to inhibit the proliferation of MCF-7 cells on introduction of the 23-yne side chain (MCF-7 cells; compared with analogue 102) [times]
C=C1/C(=C\C=C2/CCC[C@]3(C)[C@@H]([C@H](C)CCCC(C)(C)O)CC[C@@H]23)C[C@@H](O)C[C@@H]1O [1α,25(OH)2D3, 1α,25-dihydroxyvitamin D3, reference compound]	100	100	100	8.9 ± 0.50	9.23 ± 0.31	8.75 ± 0.15	100	100	100	100									
C[C@H](CCCC(C)(C)O)[C@H]1CC[C@@H]2/C(=C/C=C3C[C@@H](O)C[C@H](O)C3)CCC[C@@]21C [14-epi-19-nor-1α,25(OH)2D3, reference compound]	50	30						0.3	0.4		15	half as potent as the parent compound	3	19					
CC(CCCC(C)(C)O)C1CCC2C(=CC=C3CC(O)C(C)C(O)C3)CCCC21C (stereo not drawn) [Compound 101, 2β-methyl-19-nor-1α,25-dihydroxyvitamin D3]	70	80						0.5			9	less potent than 1α,25(OH)2D3		75	less potent than 1α,25(OH)2D3	80			
CC(CCCC(C)(C)O)C1CCC2C(=CC=C3CC(O)C(C)C(O)C3)CCCC21C (stereo not drawn) [Compound 102, 2α-methyl-19-nor-1α,25-dihydroxyvitamin D3]	1000	400					15	40			50	very potent		90	very potent		10	4	
CC(CC#CC(C)(C)O)C1CCC2C(=CC=C3CC(O)C(C)C(O)C3)CCCC21C (stereo not drawn) [Compound 103, 2β-methyl-19-nor-23-yn-1α,25-dihydroxyvitamin D3]	100	900	900				0.8	0.4	1.6	0.4	1			20					
CC(CC#CC(C)(C)O)C1CCC2C(=CC=C3CC(O)C(C)C(O)C3)CCCC21C (stereo not drawn) [Compound 104, 2α-methyl-19-nor-23-yn-1α,25-dihydroxyvitamin D3]	1500	10500					4	10			4	very potent		70	very potent			100	26
CC(CCCC(C)(C)O)C1CCC2C(=CC=C3CC(O)C(C)C(O)C3)CCCC21C (stereo not drawn) [Compound 105, 14-epi-2β-methyl-19-nor-1α,25-dihydroxyvitamin D3]	75	20					0.8	0.4	0.4		7			60					
CC(CCCC(C)(C)O)C1CCC2C(=CC=C3CC(O)C(C)C(O)C3)CCCC21C (stereo not drawn) [Compound 106, 14-epi-2α-methyl-19-nor-1α,25-dihydroxyvitamin D3]	600	900					13	13	6		9	very potent		90	very potent				
CC(CC#CC(C)(C)O)C1CCC2C(=CC=C3CC(O)C(C)C(O)C3)CCCC21C (stereo not drawn) [Compound 107, 14-epi-2β-methyl-19-nor-23-yn-1α,25-dihydroxyvitamin D3]	400	350					0.8	0.4	1.6		0			10					
CC(CC#CC(C)(C)O)C1CCC2C(=CC=C3CC(O)C(C)C(O)C3)CCCC21C (stereo not drawn) [Compound 118, 1,14-bis-epi-2β-methyl-19-nor-23-yn-1α,25-dihydroxyvitamin-D3]	0							<0.25	<0.25		3	not active at all		6					
CC(CC#CC(C)(C)O)C1CCC2C(=CC=C3CC(O)C(C)C(O)C3)CCCC21C (stereo not shown) [Compound 141]	1500	4500										very potent		9	very potent				
CCC1C(O)CC(=CC=C2CCCC3(C)C2CCC3C(C)CC#CC(C)(C)O)CC1O (stereo not shown) [Compound 142]	400	1500										very potent		10	very potent				
